Experimental data from article PMC2873968, “Novel protein kinase D inhibitors cause potent arrest in prostate cancer cell growth and motility” (BMC Chemical Biology, 2010).

What was measured:
[1] = biological target: T1, PKD2 (Homo sapiens, UniProt Q9BZL6); assay: In vitro radiometric PKD kinase assay; assay type: biochemical; design: purchased SignalChem; settings: for IC50: radiometric kinase assay, mean ± S.E.M.
T1 sequence (Q9BZL6 1-878): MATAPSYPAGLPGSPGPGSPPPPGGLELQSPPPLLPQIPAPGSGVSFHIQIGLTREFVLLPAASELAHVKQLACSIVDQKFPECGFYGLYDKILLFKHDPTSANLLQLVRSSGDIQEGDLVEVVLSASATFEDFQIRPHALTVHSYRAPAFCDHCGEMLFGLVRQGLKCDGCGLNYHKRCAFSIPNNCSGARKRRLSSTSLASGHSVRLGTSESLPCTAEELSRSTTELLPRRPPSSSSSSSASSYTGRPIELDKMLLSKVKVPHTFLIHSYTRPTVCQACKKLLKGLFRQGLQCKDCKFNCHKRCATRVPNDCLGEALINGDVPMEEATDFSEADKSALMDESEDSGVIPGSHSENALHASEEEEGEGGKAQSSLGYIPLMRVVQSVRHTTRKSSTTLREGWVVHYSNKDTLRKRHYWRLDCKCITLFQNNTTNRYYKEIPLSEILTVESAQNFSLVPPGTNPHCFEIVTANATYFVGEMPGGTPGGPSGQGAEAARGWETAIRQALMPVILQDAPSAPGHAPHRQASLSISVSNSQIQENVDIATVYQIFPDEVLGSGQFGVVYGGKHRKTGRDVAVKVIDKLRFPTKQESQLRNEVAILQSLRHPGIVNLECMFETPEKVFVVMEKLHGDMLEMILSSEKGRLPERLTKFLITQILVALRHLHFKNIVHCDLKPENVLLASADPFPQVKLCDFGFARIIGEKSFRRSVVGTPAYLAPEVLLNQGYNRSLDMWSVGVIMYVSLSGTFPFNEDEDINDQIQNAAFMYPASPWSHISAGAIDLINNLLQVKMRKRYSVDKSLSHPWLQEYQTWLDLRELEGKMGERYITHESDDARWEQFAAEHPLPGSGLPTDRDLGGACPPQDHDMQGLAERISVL
Experimental: (§1) In vitro radiometric kinase assays were conducted as previously described. Briefly, 1 μCi [γ-^32P] ATP (PerkinElmer Life Sciences), 70 μM ATP, 50 ng purified recombinant human PKD1 (Biomol International, Plymouth Meeting, PA), PKD2 (SignalChem, Richmond, BC, Canada), or CAMKIIα (Enzo Life Sciences) or 75 ng PKD3 (Enzo Life Sciences), and 2.5 μg syntide-2 (Sigma) in 50 μl kinase buffer containing 50 mM Tris-HCl, pH 7.5, 4 mM MgCl2, and 10 mM β-mercaptoethanol. For the CAMK assay, 0.5 mM CaCl2 and 30 ng/μl calmodulin were pre-incubated for 10 min on ice, and then added to each reaction mixture. The reaction was incubated at 30°C for 10 min, and 25 μl of the reaction mixture was then spotted onto Whatman P81 filter paper (Whatman Inc., Clifton, NJ). The filter papers were washed 3 times in 0.5% phosphoric acid, air-dried, and counted using a Beckman LS6500 multipurpose scintillation counter (Beckman).
(§2) The in vitro inhibitory activities of the novel compounds toward PKD were determined using radiometric PKD kinase activity assays. Recombinant human PKD1, -2, or -3 was incubated with the substrate, syntide-2, in the presence of 10 different concentrations of each compound. IC50 values were determined for each compound by plotting percent PKD activity versus compound concentration for each point.

[2] = test system: DU145 cells; assay: Wound healing assay; assay type: cell-based; settings: 25 μM, 24 h
Experimental: (§3) Wound-induced migration was measured as described previously. Briefly, PC3 or DU145 cells were grown to confluence in 6-well plates. Migration was initiated by scraping the monolayer with a pipette tip, creating a "wound." The indicated concentration of compound was added to the media, and the wound was imaged immediately under an inverted phase-contrast microscope with 10× objective. After 24 h, cells were fixed in methanol and stained with 1% crystal violet, and a final image was taken. The wound gap was measured, and % wound healing was calculated. The average % wound healing was determined based on at least 9 measurements of the wound gap.
(§4) The analogs inhibited wound healing in prostate cancer cells. DU145 cells (A) or PC3 cells (B) were grown to confluence in 6-well plates. The monolayer was wounded and imaged immediately. Cells were then treated with either vehicle (DMSO) or analogs at indicated concentration for 24 hours. Cells were then fixed and stained with 0.5% crystal violet. Percentage wound closure was calculated as an average of 9 determinations for each concentration/compound as described under "Methods." Data shown are the mean ± S.E.M. for three independent experiments. Statistical significance versus the DMSO control was determined by unpaired t-test in GraphPad Prism V. ns, not statistically significant; *, p < 0.05; **, p < 0.01; ***, p < 0.001.

[3] = test system: PC3 cells; assay: Wound healing assay; assay type: cell-based; settings: 25 μM, 24 h
Experimental: as §3, §4

[4] = biological target: T2, recombinant human PKD3 (Homo sapiens, UniProt O94806); assay: In vitro radiometric PKD kinase assay; assay type: biochemical; settings: for IC50: radiometric kinase assay, mean ± S.E.M.
T2 construct: purchased Enzo Life Sciences
T2 sequence (O94806 1-890): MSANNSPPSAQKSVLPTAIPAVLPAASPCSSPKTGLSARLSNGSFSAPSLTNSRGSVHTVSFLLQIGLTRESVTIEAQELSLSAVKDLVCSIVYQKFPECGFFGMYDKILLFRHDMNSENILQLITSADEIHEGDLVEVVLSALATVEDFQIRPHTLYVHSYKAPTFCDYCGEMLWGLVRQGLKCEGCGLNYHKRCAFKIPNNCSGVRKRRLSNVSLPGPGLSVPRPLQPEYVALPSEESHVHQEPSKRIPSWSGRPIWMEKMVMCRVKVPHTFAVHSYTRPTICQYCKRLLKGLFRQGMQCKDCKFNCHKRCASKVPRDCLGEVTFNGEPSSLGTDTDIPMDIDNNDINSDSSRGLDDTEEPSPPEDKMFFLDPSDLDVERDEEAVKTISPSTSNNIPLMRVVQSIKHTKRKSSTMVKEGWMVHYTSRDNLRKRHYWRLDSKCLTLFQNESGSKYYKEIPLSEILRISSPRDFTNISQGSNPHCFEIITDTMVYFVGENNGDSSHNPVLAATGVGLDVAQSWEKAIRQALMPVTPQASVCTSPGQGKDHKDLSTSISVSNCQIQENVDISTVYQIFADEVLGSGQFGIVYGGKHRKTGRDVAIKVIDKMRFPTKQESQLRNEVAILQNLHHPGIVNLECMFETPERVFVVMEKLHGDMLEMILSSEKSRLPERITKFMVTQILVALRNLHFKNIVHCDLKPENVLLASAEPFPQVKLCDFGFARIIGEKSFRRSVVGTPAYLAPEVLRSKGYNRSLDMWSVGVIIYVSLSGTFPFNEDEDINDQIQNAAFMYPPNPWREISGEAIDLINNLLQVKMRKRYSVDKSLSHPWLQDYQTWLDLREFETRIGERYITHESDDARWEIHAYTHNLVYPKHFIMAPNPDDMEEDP
Experimental: as §1, §2

Compound | fold stronger inhibition of PKD2 than CID755673 [1] | IC50 [1] [nM] | wound closure [2] | wound closure [3] | fold stronger inhibition of PKD3 than CID755673 [4] | IC50 [4] [nM] | fold reduction of potency for PKD2 ([1]; versus kb-NB142-70) | fold greater inhibition of PKD3 than PKD1 or -2 [4] | change of potency for PKD3 ([4]; versus kb-NB142-70)
O=C1NCCSc2c1sc1ccc(O)cc21 [kb-NB142-70] | about 4 fold | 58.7 ± 4.2 | 25-35% | 25-35% | about 4 fold | 53.2 ± 3.5 | – | – | –
COc1ccc2sc3c(c2c1)SCCNC3=O [kb-NB165-09] | – | 142 ± 7.4 | 25-35% | 25-35% | – | 98.5 ± 15.3 | – | – | –
O=C1NCCSc2c1sc1ccc(O)c(I)c21 [kb-NB165-31] | – | 163 ± 20.5 | 55-60% | 55-60% | – | 91.1 ± 17.2 | – | – | –
O=C1NCCCSc2c1sc1ccc(O)cc21 [kb-NB165-92] | – | 101 ± 10.9 | – | – | – | 58.8 ± 7.3 | 2-4 fold | about 2 fold | not altering potency
COc1ccc2sc3c(c2c1)SCCCNC3=O [kb-NB184-02] | – | 463 ± 38.2 | – | – | – | 325 ± 39 | – | – | –
